Assay results as given in the supplement of paper PMC8612539.

Test system: Mannheimia haemolytica
Assay: minimum inhibitory concentration (MIC)
Experimental: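 Broth microdilution MIC (Sensititre BOPO7F bovine plate, CLSI methods) of 19 antimicrobials against field isolates of P. multocida, M. haemolytica, H. somni (deep nasopharyngeal swabs) and E. coli, Enterococcus spp. (rectal swabs) from weaned dairy heifers. Incubation 16-24 h at 35 C. MIC is the lowest concentration preventing visible growth. Values with <= or > lie at the tested range limits. Trimethoprim-sulfamethoxazole is given as the trimethoprim component of a 1:19 mixture.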

[1] = isolate (source animal id): 100
[2] = isolate (source animal id): 103
[3] = isolate (source animal id): 107
[4] = isolate (source animal id): 108
[5] = isolate (source animal id): 112
[6] = isolate (source animal id): 113
[7] = isolate (source animal id): 121
[8] = isolate (source animal id): 122
[9] = isolate (source animal id): 123
[10] = isolate (source animal id): 126
[11] = isolate (source animal id): 133
[12] = isolate (source animal id): 135
[13] = isolate (source animal id): 138
[14] = isolate (source animal id): 141
[15] = isolate (source animal id): 142
[16] = isolate (source animal id): 145
[17] = isolate (source animal id): 149
[18] = isolate (source animal id): 151
[19] = isolate (source animal id): 152
[20] = isolate (source animal id): 154
[21] = isolate (source animal id): 159
[22] = isolate (source animal id): 162
[23] = isolate (source animal id): 170
[24] = isolate (source animal id): 171
[25] = isolate (source animal id): 172
[26] = isolate (source animal id): 173
[27] = isolate (source animal id): 179
[28] = isolate (source animal id): 180
[29] = isolate (source animal id): 183
[30] = isolate (source animal id): 186
[31] = isolate (source animal id): 187
[32] = isolate (source animal id): 188
[33] = isolate (source animal id): 190
[34] = isolate (source animal id): 191
[35] = isolate (source animal id): 192
[36] = isolate (source animal id): 201
[37] = isolate (source animal id): 202
[38] = isolate (source animal id): 209
[39] = isolate (source animal id): 211
[40] = isolate (source animal id): 220
[41] = isolate (source animal id): 221
[42] = isolate (source animal id): 223
[43] = isolate (source animal id): 233
[44] = isolate (source animal id): 237
[45] = isolate (source animal id): 241
[46] = isolate (source animal id): 252
[47] = isolate (source animal id): 253
[48] = isolate (source animal id): 259
[49] = isolate (source animal id): 260
[50] = isolate (source animal id): 262
[51] = isolate (source animal id): 282
[52] = isolate (source animal id): 287
[53] = isolate (source animal id): 288
[54] = isolate (source animal id): 291
[55] = isolate (source animal id): 293
[56] = isolate (source animal id): 298
[57] = isolate (source animal id): 299
[58] = isolate (source animal id): 300
[59] = isolate (source animal id): 302
[60] = isolate (source animal id): 304
[61] = isolate (source animal id): 306
[62] = isolate (source animal id): 308
[63] = isolate (source animal id): 309
[64] = isolate (source animal id): 313
[65] = isolate (source animal id): 318
[66] = isolate (source animal id): 320
[67] = isolate (source animal id): 321
[68] = isolate (source animal id): 323
[69] = isolate (source animal id): 324
[70] = isolate (source animal id): 326
[71] = isolate (source animal id): 328
[72] = isolate (source animal id): 329
[73] = isolate (source animal id): 333
[74] = isolate (source animal id): 335
[75] = isolate (source animal id): 338

Measured: minimum inhibitory concentration

NC[C@@H]1O[C@H](O[C@H]2[C@@H](O)[C@H](O[C@@H]3[C@@H](O)[C@H](N)C[C@H](N)[C@H]3O[C@H]3O[C@H](CN)[C@@H](O)[C@H](O)[C@H]3N)O[C@@H]2CO)[C@H](N)[C@@H](O)[C@@H]1O [Neomycin]
8 µg/mL: isolate (source animal id): 28 | [19] | [20] | [33] | [39] | [44] | [53] | [54] | [62] | [63]
16 µg/mL: isolate (source animal id): 31
> 32 µg/mL: isolate (source animal id): 8 | isolate (source animal id): 13 | isolate (source animal id): 18 | isolate (source animal id): 21 | isolate (source animal id): 25 | isolate (source animal id): 27 | isolate (source animal id): 30 | isolate (source animal id): 32 | isolate (source animal id): 34 | isolate (source animal id): 36 | isolate (source animal id): 37 | isolate (source animal id): 40 | isolate (source animal id): 41 | isolate (source animal id): 43 | isolate (source animal id): 46 | isolate (source animal id): 49 | isolate (source animal id): 50 | isolate (source animal id): 51 | isolate (source animal id): 52 | isolate (source animal id): 53 | isolate (source animal id): 56 | isolate (source animal id): 57 | [1] | [2] | [3] | [4] | [5] | [6] | [7] | [8] | [9] | [10] | [11] | [12] | [13] | [14] | [15] | [16] | [21] | [22] | [23] | [25] | [26] | [27] | [28] | [29] | [30] | [31] | [32] | [34] | [36] | [37] | [38] | [40] | [41] | [42] | [43] | [45] | [46] | [47] | [48] | [49] | [50] | [51] | [52] | [55] | [56] | [57] | [59] | [60] | [64] | [65] | [67] | [68] | [69] | [70] | [71] | [72] | [73] | [74] | [75]
32 µg/mL: isolate (source animal id): 55
≤ 4 µg/mL: [17] | [18] | [24] | [35] | [58] | [61] | [66]

COc1cc(Cc2cnc(N)nc2N)cc(OC)c1OC.Cc1cc(NS(=O)(=O)c2ccc(N)cc2)no1 [trimethoprim-sulfamethoxazole]
≤ 2 µg/mL: isolate (source animal id): 3 | isolate (source animal id): 8 | isolate (source animal id): 13 | isolate (source animal id): 18 | isolate (source animal id): 21 | isolate (source animal id): 25 | isolate (source animal id): 27 | isolate (source animal id): 28 | isolate (source animal id): 30 | isolate (source animal id): 31 | isolate (source animal id): 32 | isolate (source animal id): 34 | isolate (source animal id): 36 | isolate (source animal id): 37 | isolate (source animal id): 40 | isolate (source animal id): 41 | isolate (source animal id): 43 | isolate (source animal id): 46 | isolate (source animal id): 49 | isolate (source animal id): 50 | isolate (source animal id): 51 | isolate (source animal id): 52 | isolate (source animal id): 53 | isolate (source animal id): 55 | isolate (source animal id): 56 | isolate (source animal id): 57 | isolate (source animal id): 61 | isolate (source animal id): 64 | isolate (source animal id): 65 | isolate (source animal id): 67 | isolate (source animal id): 68 | isolate (source animal id): 70 | isolate (source animal id): 72 | isolate (source animal id): 74 | isolate (source animal id): 76 | isolate (source animal id): 80 | isolate (source animal id): 82 | isolate (source animal id): 83 | isolate (source animal id): 84 | isolate (source animal id): 85 | isolate (source animal id): 86 | [2] | [3] | [4] | [5] | [6] | [7] | [8] | [9] | [10] | [11] | [12] | [13] | [14] | [15] | [16] | [17] | [18] | [19] | [20] | [21] | [22] | [23] | [24] | [25] | [26] | [27] | [28] | [29] | [30] | [31] | [32] | [33] | [34] | [35] | [36] | [37] | [38] | [39] | [40] | [41] | [42] | [43] | [44] | [45] | [46] | [47] | [48] | [49] | [50] | [51] | [52] | [53] | [54] | [55] | [56] | [57] | [58] | [59] | [60] | [61] | [62] | [63] | [64] | [65] | [66] | [67] | [68] | [69] | [70] | [71] | [72] | [73] | [74] | [75]
> 2 µg/mL: isolate (source animal id): 60 | isolate (source animal id): 66 | isolate (source animal id): 87 | [1]

CCCN1C[C@H](C)[C@@H](O)[C@](C)(O)[C@@H](CC)OC(=O)[C@H](C)[C@@H](O[C@H]2C[C@@](C)(OC)[C@@H](O)[C@H](C)O2)[C@H](C)[C@@H](O[C@@H]2O[C@H](C)C[C@H](N(C)C)[C@H]2O)[C@](C)(O)C[C@H]1C [Gamithromycin]
> 8 µg/mL: isolate (source animal id): 57 | [5] | [6] | [9] | [10] | [11] | [12] | [13] | [14] | [15] | [21] | [22] | [48] | [51] | [56] | [57] | [59] | [60] | [64] | [67] | [68] | [70] | [71] | [72] | [73]
4 µg/mL: isolate (source animal id): 25 | isolate (source animal id): 27 | isolate (source animal id): 36 | isolate (source animal id): 37 | isolate (source animal id): 46 | isolate (source animal id): 50 | [2] | [7] | [19] | [44] | [45] | [50]
8 µg/mL: [8] | [46] | [47] | [49] | [52] | [55] | [65] | [69] | [74] | [75]
≤ 1 µg/mL: isolate (source animal id): 8 | isolate (source animal id): 13 | isolate (source animal id): 18 | isolate (source animal id): 21 | isolate (source animal id): 30 | isolate (source animal id): 32 | isolate (source animal id): 34 | isolate (source animal id): 40 | isolate (source animal id): 41 | isolate (source animal id): 43 | isolate (source animal id): 51 | isolate (source animal id): 52 | isolate (source animal id): 53 | isolate (source animal id): 55 | isolate (source animal id): 56 | [20] | [24] | [27] | [28] | [29] | [30] | [32] | [33] | [35] | [41] | [53] | [54] | [58] | [61] | [62] | [63] | [66]
2 µg/mL: isolate (source animal id): 28 | isolate (source animal id): 31 | isolate (source animal id): 49 | [1] | [3] | [4] | [16] | [17] | [18] | [23] | [25] | [26] | [31] | [34] | [36] | [37] | [38] | [39] | [40] | [42] | [43]

CC1(C)S[C@@H]2[C@H](NC(=O)Cc3ccccc3)C(=O)N2[C@H]1C(=O)O [Penicillin]
0.5 µg/mL: [6] | [11] | [20] | [24] | [33] | [53] | [74]
1 µg/mL: [9]
> 8 µg/mL: isolate (source animal id): 28 | isolate (source animal id): 31 | isolate (source animal id): 50 | [7] | [10] | [13] | [21] | [22] | [23] | [25] | [26] | [27] | [28] | [29] | [30] | [31] | [32] | [34] | [36] | [37] | [38] | [39] | [40] | [41] | [42] | [43] | [45] | [48] | [50] | [51]
0.25 µg/mL: isolate (source animal id): 8 | isolate (source animal id): 13 | isolate (source animal id): 21 | isolate (source animal id): 25 | isolate (source animal id): 27 | isolate (source animal id): 43 | isolate (source animal id): 51 | isolate (source animal id): 57 | [5] | [8] | [12] | [15] | [16] | [18] | [35] | [44] | [46] | [47] | [52] | [55] | [57] | [64] | [68] | [71] | [72] | [75]
≤ 0.12 µg/mL: isolate (source animal id): 18 | isolate (source animal id): 30 | isolate (source animal id): 32 | isolate (source animal id): 34 | isolate (source animal id): 36 | isolate (source animal id): 37 | isolate (source animal id): 40 | isolate (source animal id): 41 | isolate (source animal id): 46 | isolate (source animal id): 49 | isolate (source animal id): 52 | isolate (source animal id): 53 | isolate (source animal id): 55 | isolate (source animal id): 56 | [1] | [2] | [3] | [4] | [14] | [17] | [19] | [49] | [54] | [56] | [58] | [59] | [60] | [61] | [62] | [63] | [65] | [66] | [67] | [69] | [70] | [73]
